The series in a line: plasma stability. Particulars: mouse, plasma (K2 EDTA). The format is in vitro ADME.

This is an account of results in publication PMC4676711 (ACS chemical neuroscience, 2015).

As usually defined, the amount remaining is what is left of the initial amount, in per cent. The low end stands for more turnover, the high end for less turnover. In turn, `CC1CC(OC(=O)C(O)c2ccccc2)CC(C)(C)N1C` (stereo not shown) [Eucatropine] returned a fraction remaining at 0.5 h, 1 μM of 43.2%.
